Reference: ChEMBL document CHEMBL1128050, “The discovery of a novel and potent benzodiazepine receptor pharmacophore” (Bioorg Med Chem Lett, 1995)

Tests used:
[1] = target: GABA-A receptor; anion channel; assay: Binding affinity to the benzodiazepine receptor assayed using 0.5 nM [3H]flunitrazapam as radioligand in guinea pig cerebellum; assay type: tissue-based, Cavia porcellus
[2] = target: GABA-A receptor; anion channel (Homo sapiens) (UniProt P14867+P47870+P18507+P28472+P48169+Q99928+Q9UN88+P34903+O00591+O14764+Q8N1C3+P18505+P78334+P47869+P31644+Q16445); assay: Inhibition of [3H]flunitrazapam binding to GABA-A central benzodiazepine receptor of guinea pig cerebellum at 10 uM; assay type: tissue-based; settings: Cavia porcellus, target entry is the homologue from another species
[3] = target: GABA-A receptor; anion channel; assay: Displacement of [3H]flunitrazapam from GABA-A central benzodiazepine receptor of guinea pig cerebellum; assay type: tissue-based, Cavia porcellus

Row | SMILES | IC50 [1] | other results
1 | CN1CCC[C@@H]1Cc1c[nH]c2ccc(Nc3ncccc3[N+](=O)[O-])cc12 | 9.6 µM | 
2 | CN1CCC(c2c[nH]c3ccc(-n4cnc5cc(C#N)ccc54)cc23)C1 (centres undefined) | 0.0022 µM | 
3 | N#Cc1ccc2c(c1)ncn2-c1ccc2[nH]cc(C3CCNCC3)c2c1 | 0.00024 µM | 
4 | CN1CCC[C@H]1Cc1c[nH]c2ccc(-n3cnc4cc(C#N)ccc43)cc12 | 0.0018 µM | 
5 | CN1CCC[C@@H]1Cc1c[nH]c2ccc(-n3cnc4cc(NC(Cc5c[nH]c6ccccc56)C(=O)NC(=O)OCc5ccccc5)ccc43)cc12 (some centres undefined) | 0.033 µM | 
6 | N#Cc1ccc2c(c1)ncn2-c1ccc2[nH]ccc2c1 | 0.018 µM | 
7 | N#Cc1ccc2c(c1)ncn2-c1ccc2[nH]cc(C=O)c2c1 | 0.019 µM | 
8 | Cc1ccnc2c1ncn2-c1ccc2[nH]cc(C[C@H]3CCCN3C)c2c1 | 0.012 µM | 
9 | Cc1ccc2c(c1)ncn2-c1ccc2[nH]cc(C3CCNCC3)c2c1 | 0.00049 µM | 
10 | CN1CCC[C@@H]1Cc1c[nH]c2ccc(-n3ccc4cc(C#N)ccc43)cc12 | > 1 µM | inhibition [2]: 37%
11 | CN1CCC[C@@H]1Cc1c[nH]c2ccc(-n3cnc4cc(C#N)ccc43)cc12 | 0.0028 µM | 
12 | CN1CCC[C@@H]1Cc1c[nH]c2ccc(-n3cnc4cc(Cl)ccc43)cc12 | 0.0011 µM | 
13 | Cc1ccc2c(c1)ncn2-c1ccc2[nH]cc(C[C@H]3CCCN3C)c2c1 | 0.00016 µM | 
14 | COCCN1CCC(c2c[nH]c3ccc(-n4cnc5cc(C#N)ccc54)cc23)CC1 | 0.0006 µM | 
15 | c1cnc2c(c1)ncn2-c1ccc2[nH]cc(C[C@H]3CCCN3)c2c1 | 0.11 µM | 
16 | N#Cc1ccc2c(c1)ncn2-c1ccc2[nH]cc(C[C@H]3CCCN3CC3CC3)c2c1 |  | IC50 [3]: 0.027 µM
17 | Cc1ccc2c(c1)ncn2-c1ccc2[nH]cc(C3=CCN(C(=O)OC(C)(C)C)CC3)c2c1 | 0.031 µM | 
18 | O=Cc1c[nH]c2ccc(-n3cnc4cccnc43)cc12 | 0.209 µM | 
19 | N#Cc1ccc2c(c1)ncn2-c1ccc2[nH]cc(C3=CCNCC3)c2c1 | 0.00046 µM | 
20 | CN1CCC(c2c[nH]c3ccc(-n4ccc5cc(C#N)ccc54)cc23)C1 (centres undefined) |  | inhibition [2]: 34%
21 | CN1CCC[C@@H]1Cc1c[nH]c2ccc(-n3cnc4cc(CN)ccc43)cc12 | 0.013 µM | 
22 | CN1CCC[C@@H]1Cc1c[nH]c2ccc(-n3cnc4cc(C#N)cnc43)cc12 | 0.0098 µM | 
23 | COCCN1CCC[C@@H]1Cc1c[nH]c2ccc(-n3cnc4cc(CN)ccc43)cc12 | 0.055 µM | 
24 | COCCN1CCC[C@@H]1Cc1c[nH]c2ccc(-n3cnc4cc(C#N)ccc43)cc12 | 0.024 µM | 
25 | CN1CCC[C@@H]1Cc1c[nH]c2ccc(-n3cnc4ccccc43)cc12 | 0.016 µM | 
26 | COCCN1CCC[C@@H]1Cc1c[nH]c2ccc(-n3cnc4cc(NC(=O)Nc5ccccc5)ccc43)cc12 | 0.017 µM | 
27 | CN1CCC[C@@H]1Cc1c[nH]c2ccc(-n3cnc4cccnc43)cc12 | 0.027 µM | 
28 | Cc1ccc2c(c1)ncn2-c1ccc2[nH]ccc2c1 | 0.00079 µM | 
